Common to all, as to assay type: cell-based, human
The test system of data set [1] is PMNs. In words: Heme protein effect on DCFH oxidation in unstimulated, LPS and TNFα-, and PMA-stimulated PMNs, with or without NOS inhibitors, SOD or antioxidants. The following applies: for increase in DCFH oxidation compared with 0 and 1000 μg/mL oxyMb: 30 μg/mL oxyMb. On the procedure:
DCFH-loaded PMNs were incubated with and without N-methyl-L-arginine (L-NMMA; 5 mM; Calbiochem, San Diego, Calif.) and heme proteins (0.3-1000 μg/mL) at 37 ° C. for 10 minutes. […] In unstimulated and LPS and TNFα -stimulated PMNs, the treatments were oxyMb, or oxyMb+L-NMMA (5 mM). […] RBC cell membranes were ruptured using a micro-ultrasonic cell disrupter, Kontes, Janke and Kukel Gmbh and CO. (Stauten, Germany). […] OxyMb was prepared by mixing excess sodium dithionite with Mb for 1 h and inorganic sulfur compounds were removed by dialyzing in HBSS buffer for 3 h. Percent iron in the ferric state in non-dithionite treated oxyMb or oxyHb was not assessed. […] […] cross-linked Hb was a gift from Walter Reed Army Institute of Research. […] Also, various concentrations of bovine liver Cu, Zn SOD (30-10,000 U/mL; 8-2640 μg/mL) and 30 μg/mL oxyMb were incubated with PMA-stimulated PMNs pretreated with and without L-NMMA. Flow cytometric measurements of oxidant-induced DCF fluorescence were performed as described above.

Data set [2] deals with PMNs. Briefly: Extracellular O2.− produced by PMA-stimulated PMNs (cytochrome c reduction). The method, then: PMNs (200,000/200 μl HBSS) were treated with various concentrations of oxyMb or bovine liver Cu, Zn SOD (0.05-1000 μg/mL) in a 340 ATTC 96-well reader (SLT-Labinstruments, Salzburg, Austria) and activated with PMA. O2.^− production was determined by measuring reduction of cytochrome c, at 550 nm.

Data set [3] concerns PMNs. In words: Heme protein effect on DCFH oxidation in unstimulated, LPS and TNFα-, and PMA-stimulated PMNs, with or without NOS inhibitors, SOD or antioxidants. The following applies: 10,000 U/mL; 26,300 μg/mL, 30 μg/mL oxyMb.
In data set [4] the test system is PMNs. In words: OxyHb-FLEX bound to and internalized into PMNs (flow cytometry). The following applies: concentrations ≧30 μg/mL. On the procedure: OxyHb bound to and internalized into PMNs was determined using fluorescein-conjugated oxyHb (Molecular Probes, Eugene, Oreg.). […] Flow cytometric measurements were performed as described above. To visualize intracellular levels of oxyHb-FLEX, whole cell and Z-plane images of PMNs were collected using an Axiovert 135 inverted confocal microscope (Zeiss, Thornwood, N.Y., and Atto Instruments, Rockville, Md.).
(In general: In flow cytometry, cells or beads pass a laser one at a time.)

The subject of data set [5] is PMNs. Briefly: Total nitrite/nitrate levels in filtrates of PMA-stimulated PMNs. The settings on record: oxyMb 30 μg/mL. On the procedure: Total nitrate and nitrite levels in filtrates of PMNs were determined by reducing the nitrate to nitrite by nitrate reductase and reacting the resulting nitrite with 2,3-diaminonaphthalene to form a fluorescent product. PMNs (500,000/300 ul HBSS) were treated with oxyMb (1-1000 µg/mL) and SOD (30 U) for 10 min followed by PMA (200 nM) for 1 h at 30° C. Filtrates were collected by centrifugation at 16,000 g for 15 min through Ultrafree-MC 10,000 NMWL filters (Millipore, Bedford, Mass.). Total nitrite levels were determined with a 96-well fluorescence analyzer (IDEXX, Westbrook, Me.). PMNs exposed to the same treatment were analyzed by flow cytometry for DCFH oxidation.

In data set [6] the test system is PMNs. In words: Phosphatidylserine externalization on PMN plasma membrane (annexin V). The settings on record: oxyMb 30 μg/mL, PMA 1 h. On the procedure: Levels of phosphatidylserine on the outer surface of plasma membrane were determined by FITC-labeled annexin V (8 μg per 300,000 PMNs/100 μL) according to manufacturer's instructions (Caltag Laboratories, Burlingame, Calif.). PMNs were incubated with and without L-NMMA (5 mM) and oxyMb (1-1000 μg/mL) for 10 min at 37° C. followed by PMA (200 nM) for 1 h at 37° C. PMNs were then incubated with annexin V for 30 min and propidium iodide (0.75 mM) for 2-3 min at 4° C. prior to flow cytometric analyses.

The test system of data set [7] is PMNs. Briefly: DNA strand breaks in PMA-activated PMNs (tdt-mediated dUTP nick end labeling). The settings on record: oxyMb 30 μg/mL, PMA 2 h. The method, then:
OxyMb effect on DNA strand breaks in PMA-activated PMNs was measured by flow cytometry using the tdt-mediated dUTP nick end labeling assay (In Situ Cell Death Detection Kit, Fluorescein, Boehringer Mannheim, Indianapolis, Ind.) according to manufacturer's instructions. PMNs were incubated with and without NMMA (5 mM) and oxyMb (1-1000 μg/mL) for 10 min at 37° C. PMNs were subsequently treated with PMA (200 nM) for 2 h at 37° C. Label solutions without terminal transferase or with DNase I (10 U) served as negative and positive controls, respectively.

Data set [8] relates to PMNs. Briefly: Propidium iodide determination of PMN viability (membrane integrity). The settings on record: oxyMb 30 μg/mL, PMA 2 h. The method, then: (§1) PMNs were incubated with and without L-NMMA (5 mM) and oxyMb (1-1000 μg/mL) for 10 min at 37° C. followed by PMA (200 nM) for 2 h at 37° C. Membrane integrity was determined flow cytometry analyses after a 2-3 min treatment with PI (0.75 mM).

The test system of data set [9] is PMNs. In words: ATP levels in PMA-activated PMNs (bioluminescent somatic cell assay). The following applies: oxyMb 30 μg/mL, PMA 2 h. On the procedure: OxyMb effect on ATP levels in PMA-activated PMNs was measured using the Bioluminescent Somatic Cell Assay Kit according to the manufacturer's instructions. PMNs were incubated with and without L-NIO (5 mM) and oxyMb (1-1000 μg/mL) for 10 min at 37° C. PMNs were subsequently treated with PMA (200 nM) for 2 h at 37° C. PMNs were lysed, frozen at −20° C. and analyzed within 24 h. Emitted light was determined in a camera luminometer, Tropix (Redford, Mass.) using Panchromatic black and white, ISO 20,000, type 612 film, Polaroid (Cambridge, Mass.) with an exposure time of 2.5 min. Level of exposure was measured and digitized with a solid state camera, COHU (San Diego, Calif.) and analyzed using the public domain NIH Image 1.55 program. Statistical analysis. All values are presented as mean±SEM. The Kolmogorov-Smirnov test was used to verify the normal distribution of the data. Groups were compared by using analysis of variance with the Fisher least significant difference (LSD) post hoc procedure. Statistical significance was accepted at P values<0.05.

A further data set concerns lymphocytes. Briefly: Plasma membrane integrity of lymphocytes co-incubated with PMA-activated, oxyMb-treated PMNs. The settings on record: oxyMb 30 μg/mL. On the procedure:
as §1
A mixed PMN/lymphocyte preparation was used to determine if the NO. produced by PMNs could affect the plasma membrane integrity of neighboring lymphocytes. PMA-activated and oxyMb (30 μg/mL)-treated PMNs decreased lymphocyte plasma membrane integrity as the ratio of PMNs/lymphocyte increased from 0:1 (76%) to 4:1 (68%) to 10:1 (61%).

Setting [10] is: LPS and TNFα-stimulated PMNs, 30 ug/mL oxyMb.

With “Bovine liver SOD: bovine liver Cu, Zn superoxide dismutase”, in the data set with PMNs [1] (PMA-stimulated PMNs, in the presence of 30 μg/mL oxyMb), the “SOD concentration producing peak levels of DCFH oxidation” value is recorded as 300 U/mL. Further, the “potency in reducing extracellular O2.− relative to oxyMb” value in the data set on PMNs [2] is reported as 100-1000 fold. For the same substance, in the data set on PMNs [3], the “effect on DCF fluorescence at highest SOD concentration” value is reported as “reduced DCF fluorescence below control levels”.
Regarding “fluorescein-5-EX succinimidyl ester conjugated to oxyhemoglobin [OxyHb-FLEX]”, in the data set on PMNs [4], the “OxyHb-FLEX bound to and internalized into PMA-stimulated PMNs relative to unstimulated PMNs” value is given as 2-6 fold.
For the substance oxymyoglobin [oxyMb], the “oxyMb concentration at which DCFH oxidation peaked” value in the data set with PMNs [1] (LPS and TNFα-stimulated PMNs) amounted to 30 µg/mL. Also, in the data set on PMNs [1] (setting [10]), the “increase in DCFH oxidation compared with 0 μg/mL oxyMb” value is on record as “approximately 6 fold” and the “increase in DCFH oxidation compared with 1000 μg/mL oxyMb” value was ~3 fold. Further, in the data set with PMNs [1] (PMA-stimulated PMNs), the “oxyMb concentration of peak response in DCFH oxidation” value was determined as 30 µg/mL; the “increase in DCFH oxidation compared with 0 and 1000 μg/mL oxyMb” value is listed as “approximately 3 fold”. The “DCFH fluorescence relative to control levels” value in the data set on PMNs [1] (oxyMb 100 μg/mL in the presence of albumin, data not shown) amounted to 5 times. Besides, the “increase in DCFH oxidation compared with 0 and 1000 μg/mL oxyMb” value in the data set with PMNs [1] (unstimulated PMNs) is given as “approximately 4 fold”. Moreover, the “nitrite levels compared with untreated PMNs” value in the data set on PMNs [5] is “doubling”. In the data set with PMNs [6], the “phosphatidylserine positive PMNs” value amounted to 20% and the “phosphatidylserine positive PMNs, greater than PMNs without oxyMb” value is 5 fold. Further, in the data set with PMNs [7], the “PMNs containing DNA strand breaks” value is listed as 50% and the “PMNs containing DNA strand breaks, greater than PMNs without oxyMb” value came out at 4 fold. In the data set on PMNs [8], the “PMN plasma membrane damage (reduced viability)” value turned out to be 87% and the “PMN plasma membrane damage, higher than PMNs without oxyMb” value is 3 fold. For the same substance, in the data set on PMNs [9], the “intracellular ATP levels” value is reported as 6 ng/300,000 PMNs and the “intracellular ATP levels, lower than PMNs without oxyMb” value stood at 9 fold. Besides, the “lymphocyte plasma membrane integrity” value in the data set with lymphocytes (PMNs/lymphocyte ratio 0:1, PMA) is on record as 76%. The “lymphocyte plasma membrane integrity” value in the data set on lymphocytes (PMNs/lymphocyte ratio 4:1, PMA) is given as 68%. In the data set on lymphocytes (PMNs/lymphocyte ratio 10:1, PMA), the “lymphocyte plasma membrane integrity” value is reported as 61%.

The record behind these values is patent US20030118983A1, “Rapid screening procedure for inflammation mediators” (priority 2000, published 2003).
